Data on 33 compounds can be found in US20040156869A1, “2-substituted quinazolin-4-ylamine analogues” (Neurogen Corporation, priority 2002, published 2004).

The target in the assay is human capsaicin receptor (VR1) (Homo sapiens, UniProt Q8NER1). Put plainly: Capsaicin receptor binding assay ([3H]RTX competition, VR1-transfected HEK293 membranes).
Sequence of human capsaicin receptor (VR1) (Q8NER1 whole entry): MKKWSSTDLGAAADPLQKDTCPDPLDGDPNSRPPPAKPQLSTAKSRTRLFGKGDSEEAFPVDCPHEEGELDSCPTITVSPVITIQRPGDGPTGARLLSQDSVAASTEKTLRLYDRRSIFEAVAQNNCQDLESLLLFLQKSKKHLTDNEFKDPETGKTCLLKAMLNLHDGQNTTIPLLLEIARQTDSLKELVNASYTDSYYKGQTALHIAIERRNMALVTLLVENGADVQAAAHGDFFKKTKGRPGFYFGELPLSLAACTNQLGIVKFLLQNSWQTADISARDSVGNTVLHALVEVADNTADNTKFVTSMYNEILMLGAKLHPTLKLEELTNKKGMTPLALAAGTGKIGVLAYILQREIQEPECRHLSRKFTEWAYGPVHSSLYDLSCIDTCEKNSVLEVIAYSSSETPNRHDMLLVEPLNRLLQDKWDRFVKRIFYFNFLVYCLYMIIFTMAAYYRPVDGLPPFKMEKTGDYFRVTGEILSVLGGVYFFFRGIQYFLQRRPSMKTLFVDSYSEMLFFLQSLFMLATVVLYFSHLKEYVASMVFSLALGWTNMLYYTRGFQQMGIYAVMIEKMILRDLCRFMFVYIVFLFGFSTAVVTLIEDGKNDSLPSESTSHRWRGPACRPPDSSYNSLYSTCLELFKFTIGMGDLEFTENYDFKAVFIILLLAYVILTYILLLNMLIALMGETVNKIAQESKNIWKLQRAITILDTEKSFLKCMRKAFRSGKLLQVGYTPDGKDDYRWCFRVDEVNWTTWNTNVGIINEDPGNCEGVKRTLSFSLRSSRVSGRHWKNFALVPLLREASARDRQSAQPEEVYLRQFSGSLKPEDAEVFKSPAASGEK
What is called Ki is a measure of affinity in units of concentration, obtained from inhibition or displacement. Read a high Ki as weaker binding. Consider `CCCC(=O)c1ccc(Nc2nc(COCC(C)C)nc3nc(-c4ncccc4Cl)ccc23)cc1` [Compound 280, 1-{4-[7-(3-Chloro-pyridin-2-yl)-2-isobutoxymethyl-pyrido[2,3-d]pyrimidin-4-ylamino]-phenyl}-butan-1-one], for which the inhibition constant Ki is less than 1000 nM.

For the compound `CCOC(=O)Cc1ccc(Nc2nc(COCC(C)C)nc3nc(-c4ncccc4Cl)ccc23)cc1` [Compound 283, {4-[7-(3-Chloro-pyridin-2-yl)-2-isobutoxymethyl-pyrido[2,3-d]pyrimidin-4-ylamino]-phenyl}-acetic acid ethyl ester], the Ki is less than 1000 nM.

Compound `CC(C)COCc1nc(Nc2ccc(CC(=O)O)cc2)c2ccc(-c3ncccc3Cl)nc2n1` [Compound 284, {4-[7-(3-Chloro-pyridin-2-yl)-2-isobutoxymethyl-pyrido[2,3-d]pyrimidin-4-ylamino]-phenyl}-acetic acid] had a Ki of less than 1000 nM.

In turn, `COc1cc(Nc2nc(COCC(C)C)nc3nc(-c4ncccc4Cl)ccc23)ccc1F` [Compound 285, [7-(3-Chloro-pyridin-2-yl)-2-isobutoxymethyl-pyrido[2,3-d]pyrimidin-4-yl]-(4-fluoro-3-methoxy-phenyl)-amine] showed an inhibition constant (Ki) of less than 1000 nM.

Take `OCc1cc2nc(-c3ncccc3C(F)(F)F)ccc2c(Nc2ccc(C(F)(F)F)cc2)n1` [Compound 286, [5-(4-Trifluoromethyl-phenylamino)-2-(3-trifluoromethyl-pyridin-2-yl)-[1,6]naphthyridin-7-yl]-methanol]: the Ki was less than 1000 nM.

`COCc1nc(Nc2ccc(Cl)cc2)c2ccc(-c3ncccc3C(F)(F)F)nc2n1` [Compound 287, (4-Chloro-phenyl)-[2-methoxymethyl-7-(3-trifluoromethyl-pyridin-2-yl)-pyrido[2,3-d]pyrimidin-4-yl]-amine] gave a Ki of less than 1000 nM.

As for `COCc1nc(Nc2ccc(C#N)cc2)c2ccc(-c3ncccc3C(F)(F)F)nc2n1` [Compound 288, 4-[2-Methoxymethyl-7-(3-trifluoromethyl-pyridin-2-yl)-pyrido[2,3-d]pyrimidin-4-ylamino]-benzonitrile], the Ki was less than 1000 nM.

`COCc1nc(Nc2ccc(C(C)=O)cc2)c2ccc(-c3ncccc3C(F)(F)F)nc2n1` [Compound 289, 1-{4-[2-Methoxymethyl-7-(3-trifluoromethyl-pyridin-2-yl)-pyrido[2,3-d]pyrimidin-4-ylamino]-phenyl}-ethanone] had a Ki of less than 1000 nM.

Turning to `COCc1nc(Nc2ccc(C(C)(C)C#N)cc2)c2ccc(-c3ncccc3C(F)(F)F)nc2n1` [Compound 290, 2-{4-[2-Methoxymethyl-7-(3-trifluoromethyl-pyridin-2-yl)-pyrido[2,3-d]pyrimidin-4-ylamino]-phenyl}-2-methyl-propionitrile], the Ki was less than 1000 nM.

In turn, `COCc1nc(Nc2ccc(F)c(F)c2)c2ccc(-c3ncccc3C(F)(F)F)nc2n1` [Compound 291, (3,4-Difluoro-phenyl)-[2-methoxymethyl-7-(3-trifluoromethyl-pyridin-2-yl)-pyrido[2,3-d]pyrimidin-4-yl]-amine] had an inhibition constant (Ki) of less than 1000 nM.

The compound `COCc1nc(Nc2ccc(Cl)c(F)c2)c2ccc(-c3ncccc3C(F)(F)F)nc2n1` [Compound 292, (4-Chloro-3-fluoro-phenyl)-[2-methoxymethyl-7-(3-trifluoromethyl-pyridin-2-yl)-pyrido[2,3-d]pyrimidin-4-yl]-amine] registered a Ki of less than 1000 nM.

The compound `COCc1nc(Nc2ccc(Cl)c(C)c2)c2ccc(-c3ncccc3C(F)(F)F)nc2n1` [Compound 293, (4-Chloro-3-methyl-phenyl)-[2-methoxymethyl-7-(3-trifluoromethyl-pyridin-2-yl)-pyrido[2,3-d]pyrimidin-4-yl]-amine] showed a Ki of less than 1000 nM.

As for `COCc1nc(Nc2ccc(Cl)c(C(F)(F)F)c2)c2ccc(-c3ncccc3C(F)(F)F)nc2n1` [Compound 294], the Ki was less than 1000 nM.

`COCc1cc2nc(-c3ncccc3C(F)(F)F)ccc2c(Nc2ccc(C(F)(F)F)cc2)n1` [Compound 295, [7-Methoxymethyl-2-(3-trifluoromethyl-pyridin-2-yl)-[1,6]naphthyridin-5-yl]-(4-trifluoromethyl-phenyl)-amine] registered a Ki of less than 1000 nM.

`CC(C)COCc1cc2nc(-c3ncccc3C(F)(F)F)ccc2c(Nc2ccc(C(F)(F)F)cc2)n1` [Compound 296, [7-Isobutoxymethyl-2-(3-trifluoromethyl-pyridin-2-yl)-[1,6]naphthyridin-5-yl]-(4-trifluoromethyl-phenyl)-amine] registered a Ki of less than 1000 nM.

Take `COCc1cc(Nc2ccc(C(F)(F)F)cc2)c2ccc(-c3ncccc3C(F)(F)F)nc2n1` [Compound 297, [2-Methoxymethyl-7-(3-trifluoromethyl-pyridin-2-yl)-[1,8]naphthyridin-4-yl]-(4-trifluoromethyl-phenyl)-amine]: the Ki is less than 1000 nM.

For the compound `COCc1cc(Nc2ccc(C(C)(C)C)cc2)c2ccc(-c3ncccc3C(F)(F)F)nc2n1` [Compound 298, (4-tert-Butyl-phenyl)-[2-methoxymethyl-7-(3-trifluoromethyl-pyridin-2-yl)-[1,8]naphthyridin-4-yl]-amine], the Ki is less than 1000 nM.

`COCc1nc2nc(-c3ncccc3C(F)(F)F)ccc2c(Nc2ccc(C(F)(F)F)cc2)c1C(=O)OC` [Compound 299, 2-Methoxymethyl-4-(4-trifluoromethyl-phenylamino)-7-(3-trifluoromethyl-pyridin-2-yl)-[1,8]naphthyridine-3-carboxylic acid methyl ester]: the inhibition constant (Ki) was less than 1000 nM.

`OCc1cc(Nc2ccc(C(F)(F)F)cc2)c2ccc(-c3ncccc3C(F)(F)F)nc2n1` [Compound 300, [4-(4-Trifluoromethyl-phenylamino)-7-(3-trifluoromethyl-pyridin-2-yl)-[1,8]naphthyridin-2-yl]-methanol] came in with an inhibition constant (Ki) of less than 1000 nM.

`CC(C)COCc1cc(Nc2ccc(C(F)(F)F)cc2)c2ccc(-c3ncccc3C(F)(F)F)nc2n1` [Compound 301, [2-Isobutoxymethyl-7-(3-trifluoromethyl-pyridin-2-yl)-[1,8]naphthyridin-4-yl]-(4-trifluoromethyl-phenyl)-amine] yielded a Ki of less than 1000 nM.

In turn, `COCc1cc(Nc2ccc(Cl)cc2)c2ccc(-c3ncccc3C(F)(F)F)nc2n1` [Compound 302, (4-Chloro-phenyl)-[2-methoxymethyl-7-(3-trifluoromethyl-pyridin-2-yl)-[1,8]naphthyridin-4-yl]-amine] showed a Ki of less than 1000 nM.

In turn, `COCc1cc(Nc2ccc(F)cc2)c2ccc(-c3ncccc3C(F)(F)F)nc2n1` [Compound 303, (4-Fluoro-phenyl)-[2-methoxymethyl-7-(3-trifluoromethyl-pyridin-2-yl)-[1,8]naphthyridin-4-yl]-amine] returned a Ki of less than 1000 nM.

Consider `COCc1cc(Nc2ccc(Cl)c(F)c2)c2ccc(-c3ncccc3C(F)(F)F)nc2n1` [Compound 304, (4-Chloro-3-fluoro-phenyl)-[2-methoxymethyl-7-(3-trifluoromethyl-pyridin-2-yl)-[1,8]naphthyridin-4-yl]-amine], for which the inhibition constant (Ki) was less than 1000 nM.

The compound `COCc1cc(Nc2ccc(C#N)cc2)c2ccc(-c3ncccc3C(F)(F)F)nc2n1` [Compound 305, 4-[2-Methoxymethyl-7-(3-trifluoromethyl-pyridin-2-yl)-[1,8]naphthyridin-4-ylamino]-benzonitrile] displayed a Ki of less than 1000 nM.

As to `COCc1cc(Nc2ccc(S(=O)(=O)C(C)C)cc2)c2ccc(-c3ncccc3C(F)(F)F)nc2n1` [Compound 306, [2-Methoxymethyl-7-(3-trifluoromethyl-pyridin-2-yl)-[1,8]naphthyridin-4-yl]-[4-(propane-2-sulfonyl)-phenyl]-amine], the Ki is less than 1000 nM.

As for `COCc1cc(Nc2ccc(C(F)(F)F)cn2)c2ccc(-c3ncccc3C(F)(F)F)nc2n1` [Compound 307, [2-Methoxymethyl-7-(3-trifluoromethyl-pyridin-2-yl)-[1,8]naphthyridin-4-yl]-(5-trifluoromethyl-pyridin-2-yl)-amine], the inhibitory constant (Ki) was less than 1000 nM.

As for `COCc1cc(Nc2ccc(S(=O)(=O)C(F)(F)F)cc2)c2ccc(-c3ncccc3C(F)(F)F)nc2n1` [Compound 308, [2-Methoxymethyl-7-(3-trifluoromethyl-pyridin-2-yl)-[1,8]naphthyridin-4-yl]-(4-trifluoromethanesulfonyl-phenyl)-amine], the Ki was less than 1000 nM.

Turning to `CN(C)CCOCc1cc(Nc2ccc(C(F)(F)F)cc2)c2ccc(-c3ncccc3C(F)(F)F)nc2n1` [Compound 309, [2-(2-Dimethylamino-ethoxymethyl)-7-(3-trifluoromethyl-pyridin-2-yl)-[1,8]naphthyridin-4-yl]-(4-trifluoromethyl-phenyl)-amine], the inhibition constant Ki is less than 1000 nM.

`CCOCc1cc(Nc2ccc(C(F)(F)F)cc2)c2ccc(-c3ncccc3C(F)(F)F)nc2n1` [Compound 310, [2-Ethoxymethyl-7-(3-trifluoromethyl-pyridin-2-yl)-[1,8]naphthyridin-4-yl]-(4-trifluoromethyl-phenyl)-amine] registered a Ki of less than 1000 nM.

`CC(C)OCc1cc(Nc2ccc(C(F)(F)F)cc2)c2ccc(-c3ncccc3C(F)(F)F)nc2n1` [Compound 311, [2-Isopropoxymethyl-7-(3-trifluoromethyl-pyridin-2-yl)-[1,8]naphthyridin-4-yl]-(4-trifluoromethyl-phenyl)-amine] had a Ki of less than 1000 nM.

`CC(C)CCOCc1cc(Nc2ccc(C(F)(F)F)cc2)c2ccc(-c3ncccc3C(F)(F)F)nc2n1` [Compound 312, [2-(3-Methyl-butoxymethyl)-7-(3-trifluoromethyl-pyridin-2-yl)-[1,8]naphthyridin-4-yl]-(4-trifluoromethyl-phenyl)-amine] returned a Ki of less than 1000 nM.

As to `CCCOCc1cc(Nc2ccc(C(F)(F)F)cc2)c2ccc(-c3ncccc3C(F)(F)F)nc2n1` [Compound 313, [2-Propoxymethyl-7-(3-trifluoromethyl-pyridin-2-yl)-[1,8]naphthyridin-4-yl]-(4-trifluoromethyl-phenyl)-amine], the inhibition constant (Ki) is less than 1000 nM.

The compound `CC(C)COCc1cc(Nc2ccc(C(F)(F)F)cn2)c2ccc(-c3ncccc3C(F)(F)F)nc2n1` [Compound 314, [2-Isobutoxymethyl-7-(3-trifluoromethyl-pyridin-2-yl)-[1,8]naphthyridin-4-yl]-(5-trifluoromethyl-pyridin-2-yl)-amine] displayed a Ki of less than 1000 nM.
